Results taken from US20260347364A1, “PYRAZOLO[4,3-F]QUINAZOLINE DERIVATIVES AS MODULATORS OF G12D MUTANT KRAS USEFUL FOR THE TREATMENT OF CANCER” (JAZZ PHARMACEUTICALS IRELAND LTD., priority 2023, published 2026).

Assays:
KRAS G12D = target: T1, KRAS G12D (Homo sapiens, UniProt P01116, G12D); experiment: HTRF nucleotide exchange assay, KRAS G12D; assay type: biochemical; conditions: HTRF nucleotide exchange assay (NEA), class symbols
T1 construct: aa1-188 KRAS WT, HRAS WT, NRAS WT, or KRAS containing the G12D

KRAS WT = target: T2, KRAS WT (Homo sapiens, UniProt P01116); experiment: HTRF nucleotide exchange assay, KRAS WT; assay type: biochemical; conditions: HTRF nucleotide exchange assay (NEA), class symbols
T2 construct: aa1-188 KRAS WT
T2 sequence (P01116 1-188 isoform P01116-2): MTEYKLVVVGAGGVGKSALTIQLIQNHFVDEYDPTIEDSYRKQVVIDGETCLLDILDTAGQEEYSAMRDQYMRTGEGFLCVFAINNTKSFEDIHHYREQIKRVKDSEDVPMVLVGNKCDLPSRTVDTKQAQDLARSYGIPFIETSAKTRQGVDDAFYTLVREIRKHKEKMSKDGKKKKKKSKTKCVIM

T1 sequence (P01116 1-188 isoform P01116-2 G12D): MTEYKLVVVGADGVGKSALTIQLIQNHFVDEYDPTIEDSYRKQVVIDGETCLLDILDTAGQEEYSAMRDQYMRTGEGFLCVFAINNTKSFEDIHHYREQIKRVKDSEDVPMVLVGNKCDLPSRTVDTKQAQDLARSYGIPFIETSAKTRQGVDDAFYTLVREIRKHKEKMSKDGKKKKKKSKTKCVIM

## CCc1c(F)ccc2cc(O)cc(-c3c(F)c4nc(OC[C@@]56CCCN5C[C@H](F)C6)nc(N5CCC(O)CC5)c4c4cn(C)nc34)c12 [Example 177, 1-[4-(8-ethyl-7-fluoro-3-hydroxy-1-naphthyl)-5-fluoro-2-methyl-7-[[(2R,8S)-2-fluoro-1,2,3,5,6,7-hexahydropyrrolizin-8-yl]methoxy]pyrazolo[4,3-f]quinazolin-9-yl]piperidin-4-ol]
KRAS G12D
  IC50: ≤ 10 nM
KRAS WT
  IC50: ≤ 10 nM

## CCc1c(F)ccc2cc(O)cc(-c3c(F)c4nc(OC[C@@]56CCCN5C[C@H](F)C6)nc(N5CCC[C@@H](O)C5)c4c4cn(C)nc34)c12 [Example 178, (3R)-1-[4-(8-ethyl-7-fluoro-3-hydroxy-1-naphthyl)-5-fluoro-2-methyl-7-[[(2R,8S)-2-fluoro-1,2,3,5,6,7-hexahydropyrrolizin-8-yl]methoxy]pyrazolo[4,3-f]quinazolin-9-yl]piperidin-3-ol]
KRAS G12D
  IC50: ≤ 10 nM
KRAS WT
  IC50: ≤ 10 nM

## CCc1c(F)ccc2cc(O)cc(-c3c(F)c4nc(OC[C@@]56CCCN5C[C@H](F)C6)nc(N5CC6CCC5CN6)c4c4cn(C)nc34)c12 (stereo partly drawn) [Example 179, 4-[9-(2,5-diazabicyclo[2.2.2]octan-2-yl)-5-fluoro-2-methyl-7-[[(2R,8S)-2-fluoro-1,2,3,5,6,7-hexahydropyrrolizin-8-yl]methoxy]pyrazolo[4,3-f]quinazolin-4-yl]-5-ethyl-6-fluoro-naphthalen-2-ol]
KRAS G12D
  IC50: ≤ 10 nM
KRAS WT
  IC50: ≤ 10 nM

## CCc1c(F)ccc2cc(O)cc(-c3c(C)c4nc(OC[C@@]56CCCN5C[C@H](F)C6)nc(N5CCCn6nc(C(=O)N(C)C)c(F)c6C5)c4c4cn(C)nc34)c12 [Example 180, 5-[4-(8-ethyl-7-fluoro-3-hydroxy-1-naphthyl)-2,5-dimethyl-7-[[(2R,8S)-2-fluoro-1,2,3,5,6,7-hexahydropyrrolizin-8-yl]methoxy]pyrazolo[4,3-f]quinazolin-9-yl]-3-fluoro-N,N-dimethyl-4,6,7,8-tetrahydropyrazolo[1,5-a][1,4]diazepine-2-carboxamide]
KRAS G12D
  IC50: ≤ 10 nM
KRAS WT
  IC50: ≤ 10 nM

## CCNC(=O)c1cc2n(n1)CCCN(c1nc(OC[C@@]34CCCN3C[C@H](F)C4)nc3c(C)c(-c4cc(O)cc5ccc(F)c(CC)c45)c4nn(C)cc4c13)C2 [Example 181, N-ethyl-5-[4-(8-ethyl-7-fluoro-3-hydroxy-1-naphthyl)-7-[[(2R,8S)-2-fluoro-1,2,3,5,6,7-hexahydropyrrolizin-8-yl]methoxy]-2,5-dimethyl-pyrazolo[4,3-f]quinazolin-9-yl]-4,6,7,8-tetrahydropyrazolo[1,5-a][1,4]diazepine-2-carboxamide]
KRAS G12D
  IC50: ≤ 10 nM
KRAS WT
  IC50: ≤ 10 nM

## CCc1c(F)ccc2cc(O)cc(-c3c(C)c4nc(OC[C@@]56CCCN5C[C@H](F)C6)nc(N5CCCn6nc(C(=O)N7CCCC7)cc6C5)c4c4cn(C)nc34)c12 [Example 182, [5-[4-(8-ethyl-7-fluoro-3-hydroxy-1-naphthyl)-7-[[(2R,8S)-2-fluoro-1,2,3,5,6,7-hexahydropyrrolizin-8-yl]methoxy]-2,5-dimethyl-pyrazolo[4,3-f]quinazolin-9-yl]-4,6,7,8-tetrahydropyrazolo[1,5-a][1,4]diazepin-2-yl]-pyrrolidin-1-yl-methanone]
KRAS G12D
  IC50: ≤ 10 nM
KRAS WT
  IC50: ≤ 10 nM

## CCc1c(F)ccc2cc(O)cc(-c3cc4nc(OC[C@@]56CCCN5C[C@H](F)C6)nc(N5CCCC5CO)c4c4cn(C)nc34)c12 (stereo partly drawn) [Example 183, 5-ethyl-6-fluoro-4-[9-[2-(hydroxymethyl)pyrrolidin-1-yl]-2-methyl-7-[[(2R,8S)-2-fluoro-1,2,3,5,6,7-hexahydropyrrolizin-8-yl]methoxy]pyrazolo[4,3-f]quinazolin-4-yl]naphthalen-2-ol]
KRAS G12D
  IC50: ≤ 10 nM
KRAS WT
  IC50: ≤ 10 nM

## C#Cc1c(F)ccc2cc(O)cc(-c3c(C)c4nc(OC[C@@]56CCCN5C[C@H](F)C6)nc(N5CCC[C@@](C)(O)C5)c4c4cn(C)nc34)c12 [Example 184, (3R)-1-[4-(8-ethynyl-7-fluoro-3-hydroxy-1-naphthyl)-2,5-dimethyl-7-[[(2R,8S)-2-fluoro-1,2,3,5,6,7-hexahydropyrrolizin-8-yl]methoxy]pyrazolo[4,3-f]quinazolin-9-yl]-3-methyl-piperidin-3-ol]
KRAS G12D
  IC50: ≤ 10 nM
KRAS WT
  IC50: ≤ 10 nM

## C#Cc1c(F)ccc2cc(O)cc(-c3c(C)c4nc(OC[C@@]56CCCN5C[C@H](F)C6)nc(N5CCOCC(C)(O)C5)c4c4cn(C)nc34)c12 (stereo partly drawn) [Example 185, 4-[4-(8-ethynyl-7-fluoro-3-hydroxy-1-naphthyl)-7-[[(2R,8S)-2-fluoro-1,2,3,5,6,7-hexahydropyrrolizin-8-yl]methoxy]-2,5-dimethyl-pyrazolo[4,3-f]quinazolin-9-yl]-6-methyl-1,4-oxazepan-6-ol]
KRAS G12D
  IC50: 10 to 100 nM
KRAS WT
  IC50: ≤ 10 nM

## CCc1c(F)ccc2cc(O)cc(-c3cc4nc(OC[C@@]56CCCN5C[C@H](F)C6)nc(N5CC6CCC(C5)N6CC(C)O)c4c4cn(C)nc34)c12 (stereo partly drawn) [Example 186, 5-ethyl-6-fluoro-4-[7-[[(2R,8S)-2-fluoro-1,2,3,5,6,7-hexahydropyrrolizin-8-yl]methoxy]-9-[8-(2-hydroxypropyl)-3,8-diazabicyclo[3.2.1]octan-3-yl]-2-methyl-pyrazolo[4,3-f]quinazolin-4-yl]naphthalen-2-ol]
KRAS G12D
  IC50: 10 to 100 nM
KRAS WT
  IC50: 10 to 100 nM

## CCc1c(F)ccc2cc(O)cc(-c3c(F)c4nc(OCC5(CN6CCC(OC)CC6)CC5)nc(N5CCOCC(C)(O)C5)c4c4cn(C)nc34)c12 (stereo not shown) [Example 187, 4-[4-(8-ethyl-7-fluoro-3-hydroxy-1-naphthyl)-5-fluoro-7-[[1-[(4-methoxy-1-piperidyl)methyl]cyclopropyl]methoxy]-2-methyl-pyrazolo[4,3-f]quinazolin-9-yl]-6-methyl-1,4-oxazepan-6-ol]
KRAS G12D
  IC50: ≤ 10 nM
KRAS WT
  IC50: ≤ 10 nM

## CCc1c(F)ccc2cc(O)cc(-c3c(F)c4nc(OCC5(CO)CC5)nc(N5CCOCC(C)(O)C5)c4c4cn(C)nc34)c12 (stereo not shown) [Example 188, 4-[4-(8-ethyl-7-fluoro-3-hydroxy-1-naphthyl)-5-fluoro-7-[[1-(hydroxymethyl)cyclopropyl]methoxy]-2-methyl-pyrazolo[4,3-f]quinazolin-9-yl]-6-methyl-1,4-oxazepan-6-ol]
KRAS G12D
  IC50: ≤ 10 nM
KRAS WT
  IC50: ≤ 10 nM

## CCc1c(F)ccc2cc(O)cc(-c3c(F)c4nc(OCC5(CN6CCC(F)(F)C6)CC5)nc(N5CCOCC(C)(O)C5)c4c4cn(C)nc34)c12 (stereo not shown) [Example 189, 4-[7-[[1-[(3,3-difluoropyrrolidin-1-yl)methyl]cyclopropyl]methoxy]-4-(8-ethyl-7-fluoro-3-hydroxy-1-naphthyl)-5-fluoro-2-methyl-pyrazolo[4,3-f]quinazolin-9-yl]-6-methyl-1,4-oxazepan-6-ol]
KRAS G12D
  IC50: 10 to 100 nM
KRAS WT
  IC50: 10 to 100 nM

## CCc1c(F)ccc2cc(O)cc(-c3c(F)c4nc(OCC5(CN6CC[C@H](O)C6)CC5)nc(N5CCOCC(C)(O)C5)c4c4cn(C)nc34)c12 (stereo partly drawn) [Example 190, 4-[4-(8-ethyl-7-fluoro-3-hydroxy-1-naphthyl)-5-fluoro-2-methyl-7-[[1-[[(3S)-3-hydroxypyrrolidin-1-yl]methyl]cyclopropyl]methoxy]pyrazolo[4,3-f]quinazolin-9-yl]-6-methyl-1,4-oxazepan-6-ol]
KRAS G12D
  IC50: ≤ 10 nM
KRAS WT
  IC50: ≤ 10 nM
